Measured values published in publication PMC5995839, “Exploring the role of unnatural amino acids in antimicrobial peptides” (Scientific Reports, 2018).
≈ marks a conversion by molar mass, not a printed value. Square brackets hold non-standard residues; d marks the D form. Peptide text beside a SMILES is read from it. * marks the point of attachment. 2Nal = N[C@@H](Cc1ccc2ccccc2c1)C(=O)O; Ahx = NCCCCCC(=O)O; StBu = CC(C)(C)S*; tBu = CC(C)(C)*

Experiments:
[1] = test system: Staphylococcus aureus (ATCC 6538P); type: cell-based
[2] = test system: Escherichia coli ATCC 25922; type: cell-based
Procedure: The antimicrobial activity of the three designed peptides was tested against Escherichia coli (ATCC® 25922™), Pseudomonas aeruginosa (ATCC® 27853™), Pseudomonas aeruginosa PAO1 wild type strain, Bacillus subtilis subsp. spizizenii (ATCC® 6633™), Staphylococcus aureus (ATCC® 6538 P™) and Staphylococcus aureus MRSA WKZ-2 (kindly provided by collection of Prof. Edwin Veldhuizen, University of Utrecht, Holland). MIC assays were performed by broth microdilution method as described elsewhere[34] using Nutrient Broth (Becton Dickinson Difco, Franklin Lakes, NJ) as bacterial growth medium. […] Experiments were performed three times for each peptide.
Following the incubation time, MIC assays were carried out as previously described. […] Experiments were performed five times for each peptide.

[3] = test system: Pseudomonas aeruginosa PAO1 wild type strain; type: cell-based
Procedure: (§2) MIC assays were performed by broth microdilution method as described elsewhere[34] using Nutrient Broth (Becton Dickinson Difco, Franklin Lakes, NJ) as bacterial growth medium. […] Experiments were performed three times for each peptide.

[4] = test system: Escherichia coli (ATCC 25922); type: cell-based
Procedure: as §2

[5] = test system: Staphylococcus aureus MRSA WKZ-2; type: cell-based
Procedure: as §2

[6] = test system: Bacillus subtilis subsp. spizizenii (ATCC 6633); type: cell-based
Procedure: as §2

[7] = test system: Pseudomonas aeruginosa (ATCC 27853); type: cell-based
Procedure: as §2

[8] = Relative hydrophobicity by retention in reverse phase HPLC; type: physicochemical; details: chromatographic, Fig. S4 and Table S1 (numbers not available here)
Procedure: Crude peptides were purified by preparative HPLC on a Shimadzu LC-8A system. A Vydac C18 column (22 mm × 250 mm; 10 μm) was used, eluted with a H2O 0.1% TFA, (eluent A) and CH3CN 0.1% TFA (eluent B) linear gradient at 22 mL min^−1 flow rate. Fractions were separated according to their absorbance at 210 nm by an online UV detector (Shimadzu). Peptide fractions were then checked for their purity by analytical LCMS. Peptide identities were confirmed by LCMS analysis on a Shimadzu 20ADxr coupled with a Shimadzu ESI-IT-TOF mass detector (probe voltage 4.5 kV; probe temperature 25 °C; desolvation temperature 250 °C; detector voltage 1.5 kV). All analyses were performed with a Vydac C18 column (2.1 mm × 100 mm; 5 μm), eluted with a H2O 0.05% TFA, (eluent A) and CH3CN 0.05% TFA (eluent B) linear gradient, from 5% to 95% (solvent B), over 30 minutes, at 0.2 ml min^−1 flow rate. Pure fractions were pooled and lyophilized as TFA salts (purity >95%). Peptide samples for biological assays were further subjected to counter ion exchange on a DEAE-Sephadex weak […] resin. Briefly, peptide solutions in water were loaded on a 0.5 mL syringe column, and then eluted by decreasing the pH with an acetate buffer at pH 4.3 to obtain the desired peptide acetate salt. Further, the relative hydrophobicities of P9 peptides were evaluated through their retention in reverse phase HPLC.

[9] = test system: human keratinocytes cells HaCaT; type: cell-based
Procedure: (§1) Cytotoxic effects of the three peptides on human epithelial colorectal adenocarcinoma cells (CaCo-2) and on aneuploid immortal keratinocyte cells line from adult human skin (HaCaT) were assessed by performing the (3-(4,5-dimethylthiazol-2-yl)−2,5 diphenyltetrazolium bromide (MTT) reduction inhibition assay. Both human cell lines were obtained from the American Type Culture Collection (ATCC, Manassas, VA, USA) and grown at 37 °C in a humidified incubator containing 5% CO2 in Dulbecco’s modified Eagle’s medium (DMEM) supplemented with 10% fetal bovine serum, 4 mM glutamine, 400 units/mL penicillin, and 0.1 mg mL^−1 streptomycin. Cells were plated on 96-well plates at a density of 5 × 10^3 per well in 100 μL of medium and incubated at 37 °C with 5% CO2. Medium was then replaced with 100 μl of fresh media containing peptide solution to a final concentration ranging from 0.1–10 μM/well. After a time of incubation ranging from 18 to 48 hours at 37 °C, the peptide-containing medium was removed, and 10 μL of a 5 mg mL^−1 MTT stock solution in DMEM without red phenol, corresponding to a final concentration of […] in DMEM (final volume of 100 μL), was added to the cells. […] Cell survival was reported as the relative absorbance, with respect to control, of blue formazan measured at 570 nm with a Synergy Multi Plate Reader. […]

[10] = test system: human intestinal CaCo-2 cells; type: cell-based
Procedure: as §1

MIC, S. aureus ATCC6538P [1]	Fold change (1 h) [2]	MIC, PAO1 Wt [3]	MIC, E. coli ATCC25922 [4]	MIC, S. aureus MRSA [5]	MIC, B. spizizenii ATCC6633 [6]	MIC, P. aeruginosa ATCC27853 [7]	relative hydrophobicity (retention in reverse phase HPLC) [8]	Fold change (16 h) [2]	MIC, Preincubation for 1 h in 10% serum ([2]; E. coli ATCC 25922, peptide incubated 1 h in 10% fetal bovine serum at 37 °C before MIC assay, five replicates)	SMILES	toxic effects on HaCaT cells at low doses [9]	toxic effect on CaCo2 cells at low doses, compared with HaCaT [10]
20 µM (≈ 27.7 µg/mL)	1	10 µM (≈ 13.8 µg/mL)	10 µM (≈ 13.8 µg/mL)	40 µM (≈ 55.3 µg/mL)	40 µM (≈ 55.3 µg/mL)	2.5 µM (≈ 3.46 µg/mL)				CC(C)(C)SSC[C@H](NC(=O)CCCCCN)C(=O)N[C@@H](CCCCN)C(=O)N[C@@H](Cc1c[nH]c2ccccc12)C(=O)N[C@@H](Cc1c[nH]c2ccccc12)C(=O)N[C@@H](CCCCN)C(=O)N[C@@H](CCCCN)C(=O)N[C@@H](CSSC(C)(C)C)C(=O)NCCCCCC(N)=O [P9Trp(SS)] (H-[Ahx]C(StBu)KWWKKC(StBu)[Ahx]-NH2)		
10 µM (≈ 14 µg/mL)	1	10 µM (≈ 14 µg/mL)	10 µM (≈ 14 µg/mL)	20 µM (≈ 28.1 µg/mL)	10 µM (≈ 14 µg/mL)	2.5 µM (≈ 3.51 µg/mL)	most hydrophobic			CC(C)(C)SSC[C@H](NC(=O)CCCCCN)C(=O)N[C@@H](CCCCN)C(=O)N[C@@H](Cc1ccc2ccccc2c1)C(=O)N[C@@H](Cc1ccc2ccccc2c1)C(=O)N[C@@H](CCCCN)C(=O)N[C@@H](CCCCN)C(=O)N[C@@H](CSSC(C)(C)C)C(=O)NCCCCCC(N)=O [P9Nal(SS)] (H-[Ahx]C(StBu)K[2Nal][2Nal]KKC(StBu)[Ahx]-NH2)		
40 µM (≈ 53.6 µg/mL)	1	10 µM (≈ 13.4 µg/mL)	10 µM (≈ 13.4 µg/mL)	40 µM (≈ 53.6 µg/mL)	40 µM (≈ 53.6 µg/mL)	1.25 µM (≈ 1.68 µg/mL)		>8		CC(C)(C)SC[C@H](NC(=O)CCCCCN)C(=O)N[C@@H](CCCCN)C(=O)N[C@@H](Cc1ccc2ccccc2c1)C(=O)N[C@@H](Cc1ccc2ccccc2c1)C(=O)N[C@@H](CCCCN)C(=O)N[C@@H](CCCCN)C(=O)N[C@@H](CSC(C)(C)C)C(=O)NCCCCCC(N)=O [P9Nal(SR)] (H-[Ahx]C(tBu)K[2Nal][2Nal]KKC(tBu)[Ahx]-NH2)	no evident toxic effects	slightly higher
								>16		CC(=O)N[C@@H](CC(C)C)C(=O)N[C@@H](CCCNC(=N)N)C(=O)N[C@H](C(=O)N[C@@H](CCCNC(=N)N)C(=O)N[C@@H](CC(C)C)C(=O)N[C@@H](C)C(=O)N[C@@H](CO)C(=O)N[C@@H](Cc1c[nH]cn1)C(=O)N[C@@H](CC(C)C)C(=O)N[C@@H](CCCNC(=N)N)C(=O)N[C@@H](CCCCN)C(=O)N[C@@H](CC(C)C)C(=O)N[C@@H](CCCNC(=N)N)C(=O)N[C@@H](CCCCN)C(=O)N[C@@H](CCCNC(=N)N)C(=O)N[C@@H](CC(C)C)C(=O)N[C@@H](CC(C)C)C(=O)N[C@@H](CCCNC(=N)N)C(N)=O)C(C)C [Ac-ApoE(133–150)-NH2, reference compound]		
	>16							>16	completely lost antimicrobial activity	CC(C)C[C@H](NC(=O)[C@H](CCCNC(=N)N)NC(=O)[C@@H](NC(=O)[C@H](CCCNC(=N)N)NC(=O)[C@@H](N)CC(C)C)C(C)C)C(=O)N[C@@H](C)C(=O)N[C@@H](CO)C(=O)N[C@@H](Cc1c[nH]cn1)C(=O)N[C@@H](CC(C)C)C(=O)N[C@@H](CCCNC(=N)N)C(=O)N[C@@H](CCCCN)C(=O)N[C@@H](CC(C)C)C(=O)N[C@@H](CCCNC(=N)N)C(=O)N[C@@H](CCCCN)C(=O)N[C@@H](CCCNC(=N)N)C(=O)N[C@@H](CC(C)C)C(=O)N[C@@H](CC(C)C)C(=O)N[C@@H](CCCNC(=N)N)C(=O)O [ApoE(133–150), reference compound]		
